According to patent US20030121069A1, “Disruption of the phosphodiesterase 10 gene” (Pfizer Inc., priority 2001, published 2003):
Like-named read-outs stand apart in the source and are kept apart here.

How the values were obtained:
[1] = system: PDE10A+/+ and −/− mice; assay: Conditioned avoidance responding in PDE10A+/+ and −/− mice; conditions: for ED50: Mus musculus
Description: In the conditioned avoidance paradigm, animals are trained to move from a dark chamber in a shuttle box to a lighted chamber upon presentation of a conditioned stimulus in order to avoid a foot shock.
The conditioned avoidance shuttle chambers consist of individual Plexiglas behavior chambers (Coulbourn Instruments); each chamber divided by a guillotine door into two sides enclosed in sound attenuating cabinets. The Plexiglas chambers are fitted with metal grid floors, which are equipped with scrambled/constant current shockers. Mice are trained to avoid the onset of footshock (0.6 miliampere) by moving to the opposite side of the chamber upon activation of house lights, que lights, and the opening of the guillotine door, all of which occur 5 seconds prior to the foot shock. A computer program is used to record the number of successful avoidance responses (animals cross before onset of shock), as well as the number of escapes (where animals receive the foot shock and then cross), escape failures (where animals receive the foot shock yet still fail to cross), and the latencies to avoid (max 5 sec.) or escape (max.10 sec.) Thirty trials are completed per daily session, and inter-trial intervals are 15 seconds with the guillotine door closed. […] Vehicle treatment is performed one day every week and statistical analysis is done comparing each drug treatment on separate days vs. the vehicle treatment that week. Testing is performed during the lights on period of the light/dark cycle, typically between 8 am and 11 am. The data is analyzed using a paired t-test.

[2] = system: PDE10A; conditions: cited from earlier work
[3] = system: PDE10A; assay: cGMP level in striatal and cortical extracts of PDE10A+/+ and −/− mice after Papaverine (enzyme immunoassay); format: in vivo; conditions: PDE10A −/− mice, 32 mg/kg intraperitoneally, 15 minutes, vs vehicle
Experimental: (§1) Fifteen minutes afterwards, mice were euthanized by focused-beam microwave irradiation of the head (2 second exposure in a Litton Systems 70/50 microwave, model BN-K2, General Medical Engineering Corp., Peabody, Mass.) to prevent enzymatic degradation of cyclic nucleotides. Striatal and cortical regions were isolated and stored at −80° C. until analysis. Samples were homogenized in 0.5 N HCl and then centrifuged at 20,000×g for 30 minutes. The cGMP concentrations in the supernatants were determined using enzyme immunoassay kits (Cayman Chemical, Ann Arbor, Mich., USA) according to the manufacturer's instructions.

[4] = biological target: T1, PDE10A (Mus musculus, UniProt Q8CA95); assay: as above; format: in vivo; conditions: PDE10A+/+ mice, 32 mg/kg intraperitoneally, 15 minutes, vs vehicle
T1 construct: from tissue; host or cells: mouse brain in vivo (striatum and cortex); DBA/1LacJ-derived PDE10A +/+ and −/− mice
T1 sequence (Q8CA95 1-779 isoform Q8CA95-2): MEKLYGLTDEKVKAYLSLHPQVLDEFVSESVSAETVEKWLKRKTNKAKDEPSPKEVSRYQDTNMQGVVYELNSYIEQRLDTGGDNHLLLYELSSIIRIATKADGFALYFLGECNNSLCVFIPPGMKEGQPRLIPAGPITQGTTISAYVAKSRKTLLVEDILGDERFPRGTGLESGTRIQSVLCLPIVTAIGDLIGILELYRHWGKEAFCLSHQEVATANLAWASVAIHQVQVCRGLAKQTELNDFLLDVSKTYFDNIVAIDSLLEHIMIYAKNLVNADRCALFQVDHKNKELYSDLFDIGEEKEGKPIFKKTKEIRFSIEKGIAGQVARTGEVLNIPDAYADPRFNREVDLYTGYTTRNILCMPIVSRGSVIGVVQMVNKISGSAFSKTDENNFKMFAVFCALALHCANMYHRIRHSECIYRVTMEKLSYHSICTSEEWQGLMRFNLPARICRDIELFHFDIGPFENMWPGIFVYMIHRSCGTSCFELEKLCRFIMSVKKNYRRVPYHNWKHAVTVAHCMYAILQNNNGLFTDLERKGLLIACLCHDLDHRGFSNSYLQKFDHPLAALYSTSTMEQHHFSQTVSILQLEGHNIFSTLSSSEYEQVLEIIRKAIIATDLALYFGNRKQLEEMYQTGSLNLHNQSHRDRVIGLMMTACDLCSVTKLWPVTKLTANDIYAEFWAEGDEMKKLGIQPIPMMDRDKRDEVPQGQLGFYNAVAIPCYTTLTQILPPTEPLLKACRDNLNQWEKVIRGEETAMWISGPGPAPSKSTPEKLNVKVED
Experimental: as §1

[5] = read-out: ED50, inhibition of conditioned avoidance responding, PDE10A+/+ mice

Row | Compound | ED50 ([1]; read-out: ED50, inhibition of conditioned avoidance responding, PDE10A −/− mice) [mg/kg] | ED50 [1, 5] [mg/kg] | Vmax for cGMP over cAMP [2] | Km ([2]; read-out: Km (affinity of PDE10A for substrate)) [µM] | inhibition of conditioned avoidance responding ([1]; PDE10A −/− mice, doses up to 56 mg/kg) | effect on escape failures ([1]; PDE10A+/+ mice, highest dose tested (56 mg/kg)) | striatal cGMP level [3] | cGMP level from striatal extracts [4] | cGMP level in cortical extracts [4]
1 | O=C(CCCN1CCC(O)(c2ccc(Cl)cc2)CC1)c1ccc(F)cc1 [Haloperidol] | 0.29 | 0.21 |  |  |  |  |  |  | 
2 | Nc1nc2c(ncn2[C@@H]2O[C@@H]3COP(=O)(O)O[C@H]3[C@H]2O)c(=O)[nH]1 [cGMP, cyclic guanine 3′5′-monophosphate] |  |  | approximately 5 fold | 3 |  |  |  |  | 
3 | COc1ccc(Cc2nccc3cc(OC)c(OC)cc23)cc1OC [Papaverine] |  | 20.7 |  |  | failed to inhibit | no effect | only a slight increase | more than two fold elevation | no effect
